Patent publication US20230044787A1, “TRICYCLE DIHYDROIMIDAZOPYRIMIDONE DERIVATIVE, PREPARATION METHOD THEREOF, PHARMACEUTICAL COMPOSITION AND USE THEREOF” (priority 2019, published 2023)

Molecular target: T1, Lp-PLA2 (Homo sapiens, UniProt Q13093)
T1 construct: aliquoted and thawed 40 μL of pooled human plasma was previously added; from tissue; host or cells: pooled human plasma
T1 sequence (Q13093 22-441): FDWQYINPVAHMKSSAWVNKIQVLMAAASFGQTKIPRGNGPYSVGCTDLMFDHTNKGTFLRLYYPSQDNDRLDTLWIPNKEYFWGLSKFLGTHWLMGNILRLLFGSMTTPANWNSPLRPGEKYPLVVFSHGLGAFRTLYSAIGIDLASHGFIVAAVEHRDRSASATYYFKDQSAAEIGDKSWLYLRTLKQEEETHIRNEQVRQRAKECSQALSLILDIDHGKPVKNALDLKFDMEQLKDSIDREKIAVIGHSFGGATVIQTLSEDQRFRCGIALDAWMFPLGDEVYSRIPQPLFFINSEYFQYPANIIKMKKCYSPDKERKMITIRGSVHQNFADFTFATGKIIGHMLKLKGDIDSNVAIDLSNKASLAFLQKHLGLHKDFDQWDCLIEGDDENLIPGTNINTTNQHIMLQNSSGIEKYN
Test: Lipoprotein-associated phospholipase A2 (Lp-PLA2) human plasma assay (Thio-PAF assay)
Format: biochemical
Conditions: Lp-PLA2 human plasma assay (Thio-PAF), pooled human plasma, 30-min pre-incubation at room temperature

| SMILES | IC50 [nM] |
| --- | --- |
| O=c1nc(OCc2ccc(Oc3cccc(C(F)(F)F)c3)c(F)c2)cc2n1CC13CC(CN21)C3 [Example 124, 3-((3-fluoro-4-(3-(trifluoromethyl)phenoxy)benzyl)oxy)-7,8-dihydro-1H,6H,9H-7,8a-methanopyrrolo[1′,2′:3,4] imidazo[1,2-c]pyrimidin-1-one] | 6.1 |
| O=c1nc(OCc2ccc(Oc3ccc(Cl)c(C(F)(F)F)c3)c(F)c2)cc2n1CC13CC(CN21)C3 [Example 125, 3-((3-fluoro-4-(4-chloro-3-(trifluoromethyl)phenoxy)benzyl)oxy)-7,8-dihydro-1H,6H,9H-7,8a-methanopyrrolo[1′,2′:3,4] imidazo[1,2-c]pyrimidin-1-one] | 3 |
| O=c1nc(OCc2ccc(Oc3cccc(C(F)(F)F)c3)c(F)c2)cc2n1CC13CCC(CC1)N23 [Example 126, 3-((3-fluoro-4-(3-(trifluoromethyl)phenoxy)benzyl)oxy)-7,8-dihydro-1H,6H,9H-6,8a-ethanopyrrolo[1′,2′:3,4] imidazo[1,2-c]pyrimidin-1-one] | 5 |
| O=c1nc(OCc2ccc(Oc3ccc(Cl)c(C(F)(F)F)c3)c(F)c2)cc2n1CC13CCC(CC1)N23 [Example 127, 3-((3-fluoro-4-(4-chloro-3-(trifluoromethyl)phenoxy)benzyl)oxy)-7,8-dihydro-1H,6H,9H-6,8a-ethanopyrrolo[1′,2′:3,4] imidazo[1,2-c]pyrimidin-1-one] | 2.6 |
| O=c1nc(OCc2ccc(Oc3cnc(C(F)(F)F)nc3)c(F)c2)cc2n1CC13CCC(CC1)N23 [Example 128, 3-((3-fluoro-4-((2-(trifluoromethyl)pyrimidin-5-yl)oxy)benzyl)oxy)-7,8-dihydro-1H,6H,9H-6,8a-ethanopyrrolo[1′,2′:3,4] imidazo[1,2-c]pyrimidin-1-one] | 8.4 |
| O=c1nc(OCc2ccc(Oc3ccc(C(F)(F)F)cc3)c(F)c2)cc2n1CC13CC(CN21)C3 [Example 129, 3-((3-fluoro-4-(4-(trifluoromethyl)phenoxy)benzyl)oxy)-7,8-dihydro-1H,6H,9H-7,8a-methanopyrrolo[1′,2′:3,4] imidazo[1,2-c]pyrimidin-1-one] | 6.5 |
| O=c1nc(OCc2ccc(Oc3ccc(C(F)(F)F)cc3)c(F)c2)cc2n1CC13CCC(CC1)N23 [Example 130, 3-((3-fluoro-4-(4-(trifluoromethyl)phenoxy)benzyl)oxy)-7,8-dihydro-1H,6H,9H-6,8a-ethanopyrrolo[1′,2′:3,4] imidazo[1,2-c]pyrimidin-1-one] | 4.8 |
| O=C1N(Cc2ccccc2)[C@@H]2CN3c4cc(OCc5cc(F)c(Oc6ccnc(C(F)(F)F)c6)c(F)c5)nc(=O)n4C[C@]13C2 [Example 131] | 7.9 |
| O=c1nc(OCCc2ccc(Oc3cccc(C(F)(F)F)c3)cc2)cc2n1C[C@]13CO[C@H](CN21)C3 [Example 132, (3S,11aR)-7-(4-(3-(trifluoromethyl)phenoxy)phenethoxy)-3,4-dihydro-1H,9H,11H-3,11a-methanopyrimido[6′,1′:2,3] imidazo[5,1-c][1,4]oxazin-9-one] | 5.9 |
| O=c1nc(OCCc2ccc(Oc3cccc(C(F)(F)F)c3)cc2)cc2n1CC13CC(CN21)C3 [Example 133, 3-(4-(3-(trifluoromethyl)phenoxy)phenethoxy)-7,8-dihydro-1H,6H,9H-7,8a-methanopyrrolo[1′,2′:3,4] imidazo[1,2-c]pyrimidin-1-one] | 36.6 |
| O=c1nc(OCc2cc(F)c(Oc3ccccc3)c(F)c2)cc2n1C[C@]13CO[C@H](CN21)C3 [Example 135, (3S,11aR)-7-((3,5-difluoro-4-phenoxybenzyl)oxy)-3,4-dihydro-1H,9H,11H-3,11a-methanopyrimido[6′,1′:2,3] imidazo[5,1-c][1,4]oxazin-9-one] | 17.2 |
| O=c1nc(OCc2cc(F)c(Oc3ccc(F)c(F)c3)c(F)c2)cc2n1C[C@]13CO[C@H](CN21)C3 [Example 136] | 3.8 |
| O=c1nc(OCc2cc(F)c(Oc3cccc(F)c3)c(F)c2)cc2n1C[C@]13CO[C@H](CN21)C3 [Example 137] | 5.8 |
| COCC12CN3c4cc(OCc5ccc(Oc6ccnc(C(F)(F)F)c6)c(F)c5)nc(=O)n4CC3(C1)C2 [Example 138, 3-((3-fluoro-4-((2-(trifluoromethyl)pyridin-4-yl)oxy)benzyl)oxy)-7-(methoxymethyl)-7,8-dihydro-1H,6H,9H-7,8a-methanopyrrolo[1′,2′:3,4] imidazo[1,2-c]pyrimidin-1-one] | 2.4 |
| O=c1nc(OCc2ccc(Oc3ccnc(C(F)(F)F)c3)c(F)c2)cc2n1CC13CC(C(F)F)(CN21)C3 [Example 139, 7-(difluoromethyl)-3-((3-fluoro-4-((2-(trifluoromethyl)pyridin-4-yl)oxy)benzyl)oxy)-7,8-dihydro-1H,6H,9H-7,8a-methanopyrrolo[1′,2′:3,4] imidazo[1,2-c]pyrimidin-1-one] | 2.6 |
| COc1c(OCc2ccc(Oc3ccnc(C(F)F)c3)c(F)c2)nc(=O)n2c1N1CC3CC1(C3)C2 [Example 140, 3-((4-((2-(difluoromethyl)pyridin-4-yl)oxy)-3-fluorobenzyl)oxy)-4-methoxy-7,8-dihydro-1H,6H,9H-7,8a-methanopyrrolo[1′,2′:3,4] imidazo[1,2-c]pyrimidin-1-one] | 3.9 |
| N#Cc1cc(F)cc(COc2cc3n(c(=O)n2)C[C@]24CO[C@H](CN32)C4)c1 [Example 141, 3-fluoro-5-((((3S,11aR)-9-oxo-3,4-dihydro-1H,9H,11H-3,11a-methanopyrimido[6′,1′:2,3]imidazo[5,1-c][1,4]oxazin-7-yl)oxy)methyl)benzonitrile] | 6.1 |
| COc1c(OCc2ccc(F)c(C#N)c2)nc(=O)n2c1N1C[C@@H]3C[C@]1(CO3)C2 [Example 142] | 3.6 |
| O=c1nc(OCc2cc(F)c(Oc3ccc(Cl)c(F)c3)c(F)c2)cc2n1C[C@]13CO[C@H](CN21)C3 [Example 143] | 2.5 |

The next lines start with the values.

| IC50 [nM] | SMILES |
| --- | --- |
| 2.4 | O=c1nc(OCc2cc(F)c(Oc3ccc(C(F)(F)F)cc3)c(F)c2)cc2n1C[C@]13CO[C@H](CN21)C3 [Example 144, (3S,11aR)-7-((3,5-difluoro-4-(4-(trifluoromethyl)phenoxy)benzyl)oxy)-3,4-dihydro-1H,9H,11H-3,11a-methanopyrimido[6′1′:2,3] imidazo[5,1-c][1,4]oxazin-9-one] |
| 4.3 | O=c1nc(OCc2cc(F)c(Oc3cccc(OC(F)(F)F)c3)c(F)c2)cc2n1C[C@]13CO[C@H](CN21)C3 [Example 145, (3S,11aR)-7-((3,5-difluoro-4-(3-(trifluoromethoxy)phenoxy)benzyl)oxy)-3,4-dihydro-1H,9H,11H-3,11a-methanopyrimido[6′,1′:2,3] imidazo[5,1-c][1,4]oxazin-9-one] |
| 2.7 | O=c1nc(OCc2ccc(Oc3ccc(F)c(F)c3)c(F)c2)cc2n1C[C@]13CO[C@H](CN21)C3 [Example 146, (3S,11aR)-7-((4-(3,4-difluorophenoxy)-3-fluorobenzyl)oxy)-3,4-dihydro-1H,9H,11H-3,11a-methanopyrimido[6′,1′:2,3] imidazo[5,1-c][1,4]oxazin-9-one] |
| 6.5 | O=c1nc(OCc2cc(F)c(Oc3ccc(F)cc3)c(F)c2)cc2n1C[C@]13CO[C@H](CN21)C3 [Example 147] |
| 4.3 | O=c1nc(OCc2ccc(Oc3cncc(C(F)(F)F)c3)c(F)c2)cc2n1CC13CC(CN21)C3 [Example 148, 3-((3-fluoro-4-((5-(trifluoromethyl)pyridin-3-yl)oxy)benzyl)oxy)-7,8-dihydro-1H,6H,9H-7,8a-methanopyrrolo[1′,2′:3,4] imidazo[1,2-c]pyrimidin-1-one] |
| 4.1 | O=c1nc(OCc2ccc(Oc3ccnc(C(F)(F)F)c3)c(F)c2)cc2n1CC13CCC(CC1)N23 [Example 149, 3-((3-fluoro-4-((2-(trifluoromethyl)pyridin-4-yl)oxy)benzyl)oxy)-7,8-dihydro-1H,6H,9H-6,8a-ethanopyrrolo[1′,2′:3,4] imidazo[1,2-c]pyrimidin-1-one] |
| 4.8 | COc1c(OCc2ccc(F)c(F)c2)nc(=O)n2c1N1CC3CC1(C3)C2 [Example 150, 3-((3,4-difluorobenzyl)oxy)-4-methoxy-7,8-dihydro-1H,6H,9H-7,8a-methanopyrrolo[1′,2′:3,4] imidazo[1,2-c]pyrimidin-1-one] |
| 5.7 | COc1c(OCc2cc(F)c(F)c(F)c2)nc(=O)n2c1N1CC3CC1(C3)C2 [Example 151] |
| 3.9 | O=c1nc(OCc2ccc(Oc3ccnc(C(F)(F)F)c3)c(F)c2)cc2n1CC13CCC(COC1)N23 (centres unmarked) [Example 152, 7-((3-fluoro-4-((2-(trifluoromethyl)pyridin-4-yl)oxy)benzyl)oxy)-3,4-dihydro-1H,9H,11H-4,11a-ethanopyrimido[6′,1′:2,3] imidazo[5,1-c][1,4]oxazin-9-one] |
| 4.1 | O=c1nc(OCc2ccc(Oc3ccnc(OC(F)(F)F)c3)c(F)c2)cc2n1CC13CC(CN21)C3 [Example 153] |
| 3.6 | O=c1nc(OCc2ccc(Oc3ccnc(OC(F)(F)F)c3)c(F)c2)cc2n1CC13CCC(CC1)N23 [Example 154, 3-((3-fluoro-4-((2-(trifluoromethoxy)pyridin-4-yl)oxy)benzyl)oxy)-7,8-dihydro-1H,6H,9H-6,8a-ethanopyrrolo[1′,2′:3,4] imidazo[1,2-c]pyrimidin-1-one] |
| 3.7 | O=c1nc(OCc2ccc(Oc3ccnc(Cl)c3)c(F)c2)cc2n1CC13CC(CN21)C3 [Example 155] |
| 5.7 | O=c1nc(OCCc2ccc(Oc3ccnc(C(F)(F)F)c3)c(F)c2)cc2n1C[C@]13CO[C@H](CN21)C3 [Example 156] |
